Source: the supplement of paper PMC10627819

Tests used:
[1] = system: S. aureus Newman; assay: Bliss interaction score (quartile over a dose matrix) (fitness difference); higher = more antagonism (negative = synergy)
Method in brief: (§1)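 Combination data were used to infer fitness under each single drug. Fitness is the OD595 at entry into stationary phase divided by the robust mean of the plate's no-drug wells, with a cap of 1. The Bliss score is the observed minus the expected product fitness, summarised by quartiles over technical, biological and donor/recipient replicates.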

[2] = system: B. subtilis 168; assay: as above
Method in brief: as §1

[3] = system: S. pneumoniae D39V; assay: as above
Method in brief: as §1

[4] = system: S. aureus DSM 20231; assay: as above
Method in brief: as §1

[5] = system: S. aureus Newman; assay: fitness (endpoint OD595 vs no drug) (fraction); higher = more growth
Method in brief: (§2)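 Each well of a 384-well plate received 30 µl of culture at OD595 0.01, or 55 µl for S. pneumoniae. TSB, LB Lennox or CY served as media at 37 °C. OD595 was taken every 30 min for 14 h and corrected by subtracting the first reading. Fitness is the optical density at stationary-phase entry divided by the robust mean of no-drug controls, capped at 1.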

[6] = system: B. subtilis 168; assay: as above
Method in brief: as §2

[7] = system: S. aureus DSM 20231; assay: as above
Method in brief: as §2
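Throughout, for Bliss interaction score (quartile over a dose matrix): first quartile when negative (synergy) and third quartile when positive (antagonism).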

CC[C@H]1OC(=O)[C@H](C)[C@@H](O[C@H]2C[C@@](C)(OC)[C@@H](O)[C@H](C)O2)[C@H](C)[C@@H](O[C@@H]2O[C@H](C)C[C@H](N(C)C)[C@H]2O)[C@](C)(O)C[C@@H](C)CN(C)[C@H](C)[C@@H](O)[C@]1(C)O [Azithromycin] + CC1=C\[C@@H](O)CC(=O)Cc2nc(co2)C(=O)N2CCC=C2C(=O)O[C@H](C(C)C)[C@H](C)/C=C/C(=O)NC\C=C\1 [Virginiamycin M1]
Conditions	Bliss interaction score
[1]	0.0851
[2]	0.0627
[3]	0.0642
[4]	-0.0726

fitness
Conditions	partner 0.0625 µg/mL	partner 0.125 µg/mL	partner 0.25 µg/mL
[5], first compound 0.125 µg/mL	0.912	0.904	0.912
[5], first compound 0.25 µg/mL	0.935	0.913	0.92
[5], first compound 0.5 µg/mL	0.744	0.707	0.722
[6], first compound 0.25 µg/mL	0.911	0.876	0.97
[6], first compound 0.5 µg/mL	0.803	0.814	0.869
[7], first compound 0.125 µg/mL	0.817	0.872	0.894
[7], first compound 0.25 µg/mL	0.77	0.873	0.854
[7], first compound 0.5 µg/mL	0.515	0.362	–

fitness, one replicate
Conditions	first compound 0.125 µg/mL	first compound 0.25 µg/mL	first compound 0.5 µg/mL
[5], partner 0.5 µg/mL	0.937	0.9	0.859
[5], partner 1 µg/mL	≥ 1	≥ 1	0.89
[5], partner 2 µg/mL	0.904	0.907	0.764
[7], partner 0.5 µg/mL	0.981	0.86	0.728
[7], partner 1 µg/mL	0.791	0.798	0.505

CC[C@H]1OC(=O)[C@H](C)[C@@H](O[C@H]2C[C@@](C)(OC)[C@@H](O)[C@H](C)O2)[C@H](C)[C@@H](O[C@@H]2O[C@H](C)C[C@H](N(C)C)[C@H]2O)[C@](C)(O)C[C@@H](C)CN(C)[C@H](C)[C@@H](O)[C@]1(C)O [Azithromycin] + CCC[C@@H]1C[C@@H](C(=O)N[C@@H]([C@H]2O[C@H](SC)[C@H](O)[C@@H](O)[C@H]2O)[C@H](C)Cl)N(C)C1 [Clindamycin]
Conditions	Bliss interaction score
[1]	-0.0621
[2]	0.109
[3]	0.0737
[4]	-0.0395

fitness
Conditions	first compound 0.125 µg/mL	first compound 0.25 µg/mL	first compound 0.5 µg/mL	first compound 1 µg/mL
[5], partner 0.0312 µg/mL	0.693	–	0.481	–
[5], partner 0.125 µg/mL	–	0.113	0.0923	–
[6], partner 0.0625 µg/mL	–	0.632	0.554	–
[6], partner 0.125 µg/mL	–	0.388	0.379	–
[6], partner 0.25 µg/mL	–	0.367	0.299	0.0793
[7], partner 0.0312 µg/mL	–	–	0.142	–
[7], partner 0.0625 µg/mL	–	–	0.0702	–
[7], partner 0.125 µg/mL	0.0728	0.0466	0.0384	–

fitness, [6], one replicate
Conditions	first compound 0.5 µg/mL	first compound 1 µg/mL	first compound 2 µg/mL
partner 0.0039 µg/mL	0.945	0.922	0.516
partner 0.0078 µg/mL	0.84	0.776	0.186
partner 0.0156 µg/mL	0.776	0.715	0.23

CC[C@H]1OC(=O)[C@H](C)[C@@H](O[C@H]2C[C@@](C)(OC)[C@@H](O)[C@H](C)O2)[C@H](C)[C@@H](O[C@@H]2O[C@H](C)C[C@H](N(C)C)[C@H]2O)[C@](C)(O)C[C@@H](C)CN(C)[C@H](C)[C@@H](O)[C@]1(C)O [Azithromycin] + CCN(CC)CCOC(=O)c1ccc(N)cc1 [Procaine]
Conditions	Bliss interaction score
[1]	-0.0635
[2]	-0.0562
[3]	0.0533
[4]	-0.0967

fitness
Conditions	partner 85.5 µg/mL	partner 171 µg/mL	partner 342 µg/mL
[5], first compound 0.125 µg/mL	0.871	0.864	0.843
[5], first compound 0.25 µg/mL	0.803	0.877	0.779
[5], first compound 0.5 µg/mL	0.408	–	0.401
[6], first compound 0.25 µg/mL	0.867	0.9	0.861
[6], first compound 0.5 µg/mL	0.777	0.778	0.787
[7], first compound 0.125 µg/mL	–	0.905	0.912
[7], first compound 0.5 µg/mL	0.441	–	0.426

CC[C@H]1OC(=O)[C@H](C)[C@@H](O[C@H]2C[C@@](C)(OC)[C@@H](O)[C@H](C)O2)[C@H](C)[C@@H](O[C@@H]2O[C@H](C)C[C@H](N(C)C)[C@H]2O)[C@](C)(O)C[C@@H](C)CN(C)[C@H](C)[C@@H](O)[C@]1(C)O [Azithromycin] + CN1C2=CC=CC=C2N=C3C1=CC=CC3=O [Pyocyanin]
Conditions	Bliss interaction score
[1]	0.0847
[2]	-0.0732
[3]	-0.0827
[4]	-0.0596

fitness
Conditions	partner 1.25 µg/mL	partner 2.5 µg/mL	partner 5 µg/mL
[5], first compound 0.125 µg/mL	0.865	0.788	–
[5], first compound 0.25 µg/mL	0.856	0.759	–
[5], first compound 0.5 µg/mL	–	–	0.21
[6], first compound 0.25 µg/mL	0.838	0.792	0.648
[6], first compound 0.5 µg/mL	–	0.631	–
[7], first compound 0.125 µg/mL	0.851	0.789	0.694
[7], first compound 0.25 µg/mL	0.797	0.8	0.666
